Results: patent publication US9044428B2, “Neuritogenic peptides” (Neoloch ApS, priority 2005, dated 2015)
Peptide text beside a SMILES is read from it.

Assays:
[1] = system: Cerebellar granule neuron (CGN) cultures; experiment: Stimulation of neurite outgrowth from cerebellar granule neurons in vitro; type: cell-based, rat; conditions: 24 h treatment of CGN cultures
Excerpt: Cerebellar granule neuron (CGN) cultures were obtained from 3-4-day-old Wistar rats (Charles River, Sulzfeld, Germany, or Moellegaard, Denmark) as previously described by Schousboe et al. (1989). Briefly, the cerebella were dissected, cleared of meninges and blood vessels, chopped, and trypsinized. The neurons were washed in the presence of DNAse 1 and soybean trypsin inhibitor (Sigma), and cellular debris was pelleted by centrifugation; the cells resuspended and then plated on poly-L-lysine (PLL; Sigma)-coated or uncoated microtiter plates in Neurobasal medium supplemented with 4% (w/v) bovine serum albumin (BSA), 2% (v/v) B27, 1% (v/v) glutamax, 100 U/ml penicillin, 100 gi/ml streptomycin, 4.5 g D-glucose/L (Sigma) 0.25% (v/v) sodium pyruvate, and 2% (v/v) 1 M HEPES (Gibco BRL).

Primary cultures of CGN = experiment: Survival of CGN induced to undergo apoptosis (low KCl) in vitro; type: cell-based, rat; conditions: apoptosis induced by reducing KCl to 5 mM, two days
Experimental: Primary cultures of CGN were plated at a density of 100 000 cells/cm^2 on poly-L-lysine coated 8-well permanox slides in Neurobasal-A medium (Gibco BRL) supplemented with 2% (v/v) B27, 0.5% (v/v) glutamax, 100 units/mL penicillin, 100 μg/mL streptomycin and KCl, making the final concentration of KCl in the medium 40 mm, Twenty-four hours after plating, Ara-C (Sigma-Aldrich) was added to a final concentration of 10 μm to avoid proliferation of glial cells, after which the neurons were allowed to differentiate for a further 6 days at 37° C. Apoptotic cell death was induced by washing twice and changing the medium to Basal Medium Eagle (BME; Gibco BRL) supplemented with 1% (v/v) glutamine, 100 U/mL, penicillin and 100 μg/mL streptomycin, 3.5 g d-glucose/L and 1% (v/v) sodium pyruvate (Gibco BRL) together with various concentrations of peptide. Thereby the concentration of potassium in the cultures was reduced to 5 mm KCl (D'Mello et al. 1993). Two days after induction of apoptosis, the cells were fixed with 4% (v/v) formaldehyde and stained with Hoechst 33258 as described for the survival assay employing hippocampal neurons.

[2] = system: human erythroleukemia cells TF-1; experiment: Proliferation of TF-1 cells (BrdU incorporation ELISA); type: cell-based; conditions: for stimulation of haemopoietic cell proliferation (general conclusion): no concentration stated
Experimental: Evaluation of the effect of four EPO-derived peptides on cell proliferation was performed using a TF-1 cell line. The TF-1 cell line was established from sample from patient with severe pancytopenia (human erythroleukemia). The growth of these cells is dependent of the presence of the granulocyte-macrophage colony-stimulating factor (GM-SCF). The TF-1 cells were grown in Dulbecco's Modified Eagle Medium (DMEM) supplemented with 10% (v/v) heat inactivated foetal calf serum (FCS), 2 mM GlutaMAX, penicillin (100 U/ml) and streptomycin (100 μg/ml), 10 mM HEPES, 1 mM sodium pyruvate, 1% fungizone. The growth medium was supplemented with 2 ng/ml GM-CSF. Cell proliferation was determined using a Biotrak ELISA system, version 2 (Amersham Biosciences, UK). The procedure is based on measurement of the levels of 5-bromo-2′-deoxyuridine (BrdU) incorporation during DNA synthesis in proliferating cells. Briefly, passaged cells were washed once with starving medium (culturing medium without GM-CSF) then plated in 96-well Nuclon culture microplates (Nuno, Denmark) at a density of 5000 cells/well and grown in starving medium containing 0.008, 0.04, 0.2, 1.0, 5.0, 25 and 50 μg/ml of the tested compounds. As a positive control the human recombinant erythropoietin (EPO) (Calbiochem, Denmark) was used in a concentration of 2.0 ng/ml. TF-1 cells were allowed to grow in the presence of peptides for 24 h and than to all wells (except negative controls) BrdU was added to a final concentration of 10 μM and cultures were further incubated for 24 h, fixed and processed according to the procedure recommended by manufacturer, […]

rat brain after TBI [3] = experiment: Programmed cell death after traumatic brain injury (TUNEL); type: in vivo; conditions: s.c., 3 days after lesion
Experimental: (§1) Male rats (wistar) (tree groups, 5 rats/group) were injected s.c with different Epo peptides (each group individually with Epo 2, Epo 3 or Epo 4) three times according to the scheme: • 1. the day before the lesion: a single injection of a peptide per animal (1 mg/100 g animal weight); • 2. the 1st day after the lesion: a single injection of a peptide per animal (1 mg/100 g animal weight): • 3. the 2nd day after the lesion: a single injection of a peptide per animal (1 mg/100 g animal weight); • 4. the 3rd day after the lesion: animals are sacrificed.
(§2) Control groups were a group (4 rats) injected with the vehicle (water) and a group (4 rats), injected with human recombinant EPO (hrEPO) in dose 50 μg/100 g rat according to the above scheme.
A traumatic brain injury (TBI) was induced by applying dry ice (−78 C) to the extracranial surface of the skull for 60 sec, which induces a focal injury in the right fronto-parietal cortex. Three days after the lesion (3 dpl) rats were deeply anesthetized with Brietal (10 mg/100 gr) and fixed by transcardial perfusion with 0.9% NaCl and 0.3% heparin, followed by Zamboni's fixative. The brains were removed, dehydrated according to the standard protocol, embedded in paraffin, and cut in 6-μm-thick frontal sections for further evaluation by immunohistochemistry and TUNEL. […]

rat brain after TBI [4] = experiment: Oxidative DNA damage after traumatic brain injury (8-oxoguanine immunostaining); type: in vivo; conditions: s.c., 3 days after lesion
Experimental: as §1, §2
(§3) A traumatic brain injury (TBI) was induced by applying dry ice (−78 C) to the extracranial surface of the skull for 60 sec, which induces a focal injury in the right fronto-parietal cortex. Three days after the lesion (3 dpl) rats were deeply anesthetized with Brietal (10 mg/100 gr) and fixed by transcardial perfusion with 0.9% NaCl and 0.3% heparin, followed by Zamboni's fixative. The brains were removed, dehydrated according to the standard protocol, embedded in paraffin, and cut in 6-μm-thick frontal sections for further evaluation by immunohistochemistry and TUNEL.
(§4) For immunohistochemistry the sections of the brains were incubated overnight with polyclonal rabbit anti-cow GFAP, GAP-43, 8-oxoguanine, or PSA-NCAM antibodies 1:250 (Dakopatts). The primary antibodies were detected in the sections with biotinylated secondary antibodies followed by incubation with streptavidin-biotin-peroxidase (30 min). Afterwards, the sections were incubated with biotinylated tyramide and streptavidin-peroxidase complex (NEN, Life Science Products, USA, code NEL700A) prepared following the manufacturer recommendations, and visualized with 0.015% H2O2 in DAB/TBS for 10 min.

rat brain after TBI [5] = experiment: Neuroplasticity and neurite outgrowth in vivo after TBI (PSA-NCAM and GAP-43 immunostaining); conditions: for level of PSA-NCAM staining: area adjusted to the lesion and subventricular zone; for neurite outgrowth in vivo (GAP-43 immunostaining): cortical lesion area, choroid plexus, hippocampus, hypothalamus
Experimental: as §1, §2, §3, §4

[6] = Hematocrit in rats after the brain lesion; type: in vivo; conditions: rat after brain lesion, peptide 1 mg/100 g s.c., p>0.02
Experimental: as §1, §2

[7] = target: T1, recombinant erythropoietin receptor (EPOR-Fc) (Homo sapiens, UniProt P19235); experiment: SPR binding of soluble EPOR-Fc to immobilized Epo 3 peptide
T1 construct: the chip was incubated with soluble recombinant EPOR-Fc under standard conditions
T1 sequence (P19235 25-250 limits assumed): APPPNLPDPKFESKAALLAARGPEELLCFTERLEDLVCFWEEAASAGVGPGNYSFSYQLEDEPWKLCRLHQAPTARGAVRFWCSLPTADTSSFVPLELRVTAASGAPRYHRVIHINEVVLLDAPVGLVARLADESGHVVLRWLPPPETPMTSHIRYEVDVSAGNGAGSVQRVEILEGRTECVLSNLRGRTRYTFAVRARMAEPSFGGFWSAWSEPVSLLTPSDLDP
Experimental: The binding of Epo 3 to EPOR-Fc was studied by SPR analysis. The Epo 3 peptide was immobilized on a chip and the chip was incubated with soluble recombinant EPOR-Fc under standard conditions. Three independent experiments were performed. […] The results of binding are shown on FIG. 16.

rat brain after TBI [8] = experiment: Astrocytosis after traumatic brain injury (GFAP IHC); type: in vivo; conditions: s.c., 3 days after lesion
Experimental: as §1, §2
A traumatic brain injury (TBI) was induced by applying dry ice (−78 C) to the extracranial surface of the skull for 60 sec, which induces a focal injury in the right fronto-parietal cortex. […]
For immunohistochemistry the sections of the brains were incubated overnight with polyclonal rabbit anti-cow GFAP, GAP-43, 8-oxoguanine, or PSA-NCAM antibodies 1:250 (Dakopatts). The primary antibodies were detected in the sections with biotinylated secondary antibodies followed by incubation with streptavidin-biotin-peroxidase (30 min). […]

[9] = Epo 3 ionic bonded with the chip, soluble EPOR-Fc, three experiments

| Compound | neurite outgrowth from CGN (neuritogenic activity) [1] | protection of CGN induced to undergo apoptosis (neuronal survival) (Primary cultures of CGN) | proliferation of TF-1 cells ([2]; concentration of 50 μg/ml) | stimulation of haemopoietic cell proliferation (general conclusion) [2] | TUNEL-positive apoptotic cells around the necrotic cavity (rat brain after TBI [3]) | 8-oxoguanine positive cells (oxidative DNA damage) (rat brain after TBI [4]) | level of PSA-NCAM staining (rat brain after TBI [5]) | neurite outgrowth in vivo (GAP-43 immunostaining) (rat brain after TBI [5]) | effect on the hematocrit vs control [6] | astrocytosis (reactive astrogliosis) by GFAP IHC (rat brain after TBI [8]) | also measured |
| --- | --- | --- | --- | --- | --- | --- | --- | --- | --- | --- | --- |
| CC(C)C[C@H](NC(=O)CNC(=O)[C@H](CO)NC(=O)[C@@H](NC(=O)[C@H](C)NC(=O)[C@H](CCCCN)NC(=O)[C@H](CC(=O)O)NC(=O)[C@@H](NC(=O)[C@H](Cc1c[nH]cn1)NC(=O)[C@H](CC(C)C)NC(=O)[C@@H](N)CCC(N)=O)C(C)C)C(C)C)C(=O)N[C@@H](CCCNC(=N)N)C(=O)N[C@@H](CO)C(=O)N[C@@H](CC(C)C)C(=O)N[C@H](C(=O)N[C@H](C(=O)N[C@@H](CC(C)C)C(=O)N[C@@H](CC(C)C)C(=O)N[C@@H](CCCNC(=N)N)C(=O)N[C@@H](C)C(=O)O)[C@@H](C)O)[C@@H](C)O [Epo3] (H-QLHVDKAVSGLRSLTTLLRA-OH) | capable of stimulating neurite outgrowth | strongest neuroprotective effect | stimulate proliferation of TF-1 cells | most potent among them | lowest level of apoptosis | lowest number of the 8-oxoguanine positive cells | significantly increases the level of PSA-NCAM staining | stimulates neurite outgrowth | no statistically significant effect |  | neurite outgrowth from CGN (neuritogenic activity) ([1]; listed as SEQ ID NO: 3): strongly induce neurite outgrowth; effect on the hematocrit vs control ([6]; listed as Epo 3): no significant effect; binding to EPOR ([7]; Epo 3 covalently bonded to the chip): does not bind to EPOR; association rate ka [7, 9]: 2.1*10^4+−1.4*10^4; dissociation rate kd [7, 9]: 4.33*10^−5+−1.62*10^−5; kon ([7]; Epo 3 ionic bonded with the chip, soluble EPOR-Fc, three experiments, read-out: association rate ka): 21000 M⁻¹ s⁻¹; koff ([7]; Epo 3 ionic bonded with the chip, soluble EPOR-Fc, three experiments, read-out: dissociation rate kd): 4.33e-05 s⁻¹; Kd ([7]; Epo 3 ionic bonded with the chip, soluble EPOR-Fc, read-out: overall binding affinity of EPOR to Epo3): 4.48 nM |
| DSRVLERYLLEAKE (Derived from human erythropoietin, Swiss Prot P01588) [Epo1, peptide fragment derived from human erythropoietin] |  |  | stimulates proliferation of TF-1 cells |  |  |  |  |  |  |  | neurite outgrowth from CGN (neuritogenic activity) ([1]; listed as SEQ ID NO: 1): do net have any neuritogenic activity; proliferation of TF-1 cells ([2]; concentration of 0.2 μg/ml): probably had a stimulatory effect |
| NENITVPDTKVNFYAWKR (Derived from human erythropoietin, Swiss Prot P01588) [Epo2, peptide fragment derived from human erythropoietin] | capable of stimulating neurite outgrowth | strongest neuroprotective effect |  |  |  | lowest number of the 8-oxoguanine positive cells |  | stimulates neurite outgrowth | no statistically significant effect | mast pronounced increase in reactive astrogliosis | neurite outgrowth from CGN (neuritogenic activity) ([1]; listed as SEQ ID NO: 2): strongly induce neurite outgrowth; proliferation of TF-1 cells ([2]; concentrations of 25 and 50 μg/ml): stimulates proliferation of TF-1 cells; effect on the hematocrit vs control ([6]; listed as Epo 2): no significant effect |
| RVYSNFLRGKLKLYTGEA (Derived from human erythropoietin, Swiss Prot P01588) [Epo4, peptide fragment derived from human erythropoietin] | capable of stimulating neurite outgrowth | strongest neuroprotective effect | stimulate proliferation of TF-1 cells | most potent among them | lowest level of apoptosis | significantly reduced oxidative DNA damage | significantly increases the level of PSA-NCAM staining |  | no statistically significant effect | least effect | neurite outgrowth from CGN (neuritogenic activity) ([1]; listed as SEQ ID NO: 4): strongly induce neurite outgrowth |
